What follows are molecules tested against T1, Recombinant (1-346) HPK1 (h) (Homo sapiens, UniProt Q92918) (assay: HPK1 Human STE Kinase Enzymatic Radiometric Assay). Conditions: read-out: HPK1 IC50 nM Range*.
T1 construct: Recombinant (1-346) HPK1 (h) is incubated with 8 mM MOPS pH 7.0
T1 sequence (Q92918 1-346): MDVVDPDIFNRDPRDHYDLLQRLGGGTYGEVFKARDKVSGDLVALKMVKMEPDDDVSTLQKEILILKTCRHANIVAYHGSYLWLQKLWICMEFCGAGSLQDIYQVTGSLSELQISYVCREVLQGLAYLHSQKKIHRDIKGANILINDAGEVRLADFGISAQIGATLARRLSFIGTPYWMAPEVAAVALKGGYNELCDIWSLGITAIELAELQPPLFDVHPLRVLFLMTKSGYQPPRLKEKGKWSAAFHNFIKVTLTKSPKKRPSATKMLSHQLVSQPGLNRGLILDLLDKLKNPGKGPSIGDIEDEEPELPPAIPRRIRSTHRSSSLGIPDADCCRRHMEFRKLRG
Type: biochemical
Description: A stock solution of 10 mM of test compound is prepared in DMSO. The compound plate was prepared by 3-fold and 9-point serial dilutions. […] The reaction is initiated by The addition of the Mg/ATP mix. After incubation for 40 minutes at RT, the reaction is stopped by the addition of phosphoric acid to a concentration of 0.5%.

Row | SMILES | IC50
1 | Nc1nc(F)c(-c2ccc(C3=CCOCC3)cc2C=O)cc1-c1cc2c(cc1F)C(=O)NCC2 [I-514, 2-(6-amino-2-fluoro-5-(7-fluoro-1-oxo-1,2,3,4-tetrahydroisoquinolin-6-yl)pyridin-3-yl)-5-(3,6-dihydro-2H-pyran-4-yl)benzaldehyde] | 101 to 1000 nM
2 | COc1ccc(-c2cc(-c3ccc4c(c3)CCNC4=O)c(N)nc2F)cc1CN1CC(OC)C1 [I-516, 6-(2-amino-6-fluoro-5-(4-methoxy-3-((3-methoxyazetidin-1-yl)methyl)phenyl)pyridin-3-yl)-3,4-dihydroisoquinolin-1(2H)-one] | 11 to 100 nM
3 | COc1ccc(-c2cc(-c3cc4c(cc3F)C(=O)NCC4)c(N)nc2F)cc1CN1CC(OC)C1 [I-517, 6-(2-amino-6-fluoro-5-(4-methoxy-3-((3-methoxyazetidin-1-yl)methyl)phenyl)pyridin-3-yl)-7-fluoro-3,4-dihydroisoquinolin-1(2H)-one] | 11 to 100 nM
4 | COc1ccc(-c2cc(-c3ccc4c(c3)CCNC4=O)c(N)nc2F)cc1CN1CCC(OC)CC1 [I-518, 6-(2-amino-6-fluoro-5-(4-methoxy-3-((4-methoxypiperidin-1-yl)methyl)phenyl)pyridin-3-yl)-3,4-dihydroisoquinolin-1(2H)-one] | 11 to 100 nM
5 | COc1ccc(-c2cc(-c3cc4c(cc3F)C(=O)NCC4)c(N)nc2F)cc1CN1CCC(OC)CC1 [I-519, 6-(2-amino-6-fluoro-5-(4-methoxy-3-((4-methoxypiperidin-1-yl)methyl)phenyl)pyridin-3-yl)-7-fluoro-3,4-dihydroisoquinolin-1(2H)-one] | 11 to 100 nM
6 | Cc1[nH]c(=O)c2ccc(-c3cc(-c4ccc(C5CCOCC5)c(CN(C)C)c4)c(F)nc3N)cc2c1F [I-521, 6-(2-amino-5-(3-((dimethylamino)methyl)-4-(tetrahydro-2H-pyran-4-yl)phenyl)-6-fluoropyridin-3-yl)-4-fluoro-3-methylisoquinolin-1(2H)-one] | 11 to 100 nM
7 | COC1CN(Cc2cc(-c3cc(-c4ccc5c(c4)CCNC5=O)c(N)nc3F)ccc2N2CCOCC2)C1 [I-522, 6-(2-amino-6-fluoro-5-(3-((3-methoxyazetidin-1-yl)methyl)-4-morpholinophenyl)pyridin-3-yl)-3,4-dihydroisoquinolin-1(2H)-one] | 11 to 100 nM
8 | COC1CN(Cc2cc(-c3cc(-c4cc5c(cc4F)C(=O)NCC5)c(N)nc3F)ccc2N2CCOCC2)C1 [I-523, 6-(2-amino-6-fluoro-5-(3-((3-methoxyazetidin-1-yl)methyl)-4-morpholinophenyl)pyridin-3-yl)-7-fluoro-3,4-dihydroisoquinolin-1(2H)-one] | 11 to 100 nM
9 | CN(C)Cc1cc(-c2cc(-c3ccc4c(c3)CCNC4=O)c(N)nc2F)ccc1OCCCC(F)F [I-524, 6-(2-amino-5-(4-(4,4-difluorobutoxy)-3-((dimethylamino)methyl)phenyl)-6-uoropyridin-3-yl)-3,4-dihydroisoquinolin-1(2H)-one] | 0.1 to 10 nM
10 | CN(C)Cc1cc(-c2cc(-c3cc4c(cc3F)C(=O)NCC4)c(N)nc2F)ccc1OCCCC(F)F [I-525, 6-(2-amino-5-(4-(4,4-difluorobutoxy)-3-((dimethylamino)methyl)phenyl)-6-fluoropyridin-3-yl)-7-fluoro-3,4-dihydroisoquinolin-1(2H)-one] | 11 to 100 nM
11 | COC1CCN(Cc2cc(-c3cc(-c4ccc5c(c4)CCNC5=O)c(N)nc3F)ccc2OCCCC(F)F)CC1 [I-526, 6-(2-amino-5-(4-(4,4-difluorobutoxy)-3-((4-methoxypiperidin-1-yl)methyl)phenyl)-6-fluoropyridin-3-yl)-3,4-dihydroisoquinolin-1(2H)-one] | 11 to 100 nM
12 | COC1CCN(Cc2cc(-c3cc(-c4cc5c(cc4F)C(=O)NCC5)c(N)nc3F)ccc2OCCCC(F)F)CC1 [I-527, 6-(2-amino-5-(4-(4,4-difluorobutoxy)-3-((4-methoxypiperidin-1-yl)methyl)phenyl)-6-fluoropyridin-3-yl)-7-fluoro-3,4-dihydroisoquinolin-1(2H)-one] | 11 to 100 nM
13 | Nc1nc(F)c(-c2ccc(C3=CCOCC3)cc2CO)cc1-c1cc2c(cc1F)C(=O)NCC2 [I-528, 6-(2-amino-5-(4-(3,6-dihydro-2H-pyran-4-yl)-2-(hydroxymethyl)phenyl)-6-fluoropyridin-3-yl)-7-fluoro-3,4-dihydroisoquinolin-1(2H)-one] | 101 to 1000 nM
14 | CN(C)Cc1cc(-c2cc(-c3ccc4c(c3)CCNC4=O)c(N)nc2F)ccc1OC1CCOCC1 [I-530, 6-(2-amino-5-(3-((dimethylamino)methyl)-4-((tetrahydro-2H-pyran-4-yl)oxy)phenyl)-6-fluoropyridin-3-yl)-3,4-dihydroisoquinolin-1(2H)-one] | 11 to 100 nM
15 | CN(C)Cc1cc(-c2cc(-c3cc4c(cc3F)C(=O)NCC4)c(N)nc2F)ccc1OC1CCOCC1 [I-531, 6-(2-amino-5-(3-((dimethylamino)methyl)-4-((tetrahydro-2H-pyran-4-yl)oxy)phenyl)-6-fluoropyridin-3-yl)-7-fluoro-3,4-dihydroisoquinolin-1(2H)-one] | 11 to 100 nM
16 | CN(C)Cc1cc(-c2cc(-c3ccc4c(c3)CCNC4=O)c(N)nc2F)ccc1OCC1CCOCC1 [I-532, 6-(2-amino-5-(3-((dimethylamino)methyl)-4-((tetrahydro-2H-pyran-4-yl)methoxy)phenyl)-6-fluoropyridin-3-yl)-3,4-dihydroisoquinolin-1(2H)-one] | 11 to 100 nM

Next, values leading:

Row | IC50 | SMILES
17 | 11 to 100 nM | Cc1cc2cc(-c3cc(-c4ccc(N5CCOCC5)c(CN(C)C)c4)c(F)nc3N)cc(F)c2c(=O)[nH]1 [I-505, 6-(2-amino-5-(3-((dimethylamino)methyl)-4-morpholinophenyl)-6-fluoropyridin-3-yl)-8-fluoro-3-methylisoquinolin-1(2H)-one]
18 | 11 to 100 nM | CN(C)Cc1cc(-c2cc(-c3ccc4c(c3)CCNC4=O)c(N)nc2F)ccc1OCC1CC1 [I-506, 6-(2-amino-5-(4-(cyclopropylmethoxy)-3-((dimethylamino)methyl)phenyl)-6-fluoropyridin-3-yl)-3,4-dihydroisoquinolin-1(2H)-one]
19 | 11 to 100 nM | CN(C)Cc1cc(-c2cc(-c3cc4c(cc3F)C(=O)NCC4)c(N)nc2F)ccc1OCC1CC1 [I-507, 6-(2-amino-5-(4-(cyclopropylmethoxy)-3-((dimethylamino)methyl)phenyl)-6-fluoropyridin-3-yl)-7-fluoro-3,4-dihydroisoquinolin-1(2H)-one]
20 | 11 to 100 nM | COC1CCN(Cc2cc(-c3cc(-c4ccc5c(c4)CCNC5=O)c(N)nc3F)ccc2OCC2CC2)CC1 [I-508, 6-(2-amino-5-(4-(cyclopropylmethoxy)-3-((4-methoxypiperidin-1-yl)methyl)phenyl)-6-fluoropyridin-3-yl)-3,4-dihydroisoquinolin-1(2H)-one]
21 | 11 to 100 nM | COC1CCN(Cc2cc(-c3cc(-c4cc5c(cc4F)C(=O)NCC5)c(N)nc3F)ccc2OCC2CC2)CC1 [I-509, 6-(2-amino-5-(4-(cyclopropylmethoxy)-3-((4-methoxypiperidin-1-yl)methyl)phenyl)-6-fluoropyridin-3-yl)-7-fluoro-3,4-dihydroisoquinolin-1(2H)-one]
22 | 11 to 100 nM | COC1CCN(Cc2cc(-c3cc(-c4ccc5c(c4)CCNC5=O)c(N)nc3F)ccc2N2CCOCC2)CC1 [I-510, 6-(2-amino-6-fluoro-5-(3-((4-methoxypiperidin-1-yl)methyl)-4-morpholinophenyl)pyridin-3-yl)-3,4-dihydroisoquinolin-1(2H)-one]
23 | 11 to 100 nM | COC1CCN(Cc2cc(-c3cc(-c4cc5c(cc4F)C(=O)NCC5)c(N)nc3F)ccc2N2CCOCC2)CC1 [I-511, 6-(2-amino-6-fluoro-5-(3-((4-methoxypiperidin-1-yl)methyl)-4-morpholinophenyl)pyridin-3-yl)-7-fluoro-3,4-dihydroisoquinolin-1(2H)-one]
24 | 11 to 100 nM | COC1CCN(Cc2cc(-c3cc(-c4ccc5c(c4)CCNC5=O)c(N)nc3F)ccc2N2CCSCC2)CC1 [I-512, 6-(2-amino-6-fluoro-5-(3-((4-methoxypiperidin-1-yl)methyl)-4-thiomorpholinophenyl)pyridin-3-yl)-3,4-dihydroisoquinolin-1(2H)-one]
25 | 11 to 100 nM | COC1CCN(Cc2cc(-c3cc(-c4cc5c(cc4F)C(=O)NCC5)c(N)nc3F)ccc2N2CCSCC2)CC1 [I-513, 6-(2-amino-6-fluoro-5-(3-((4-methoxypiperidin-1-yl)methyl)-4-thiomorpholinophenyl)pyridin-3-yl)-7-fluoro-3,4-dihydroisoquinolin-1(2H)-one]
26 | 11 to 100 nM | Cc1[nH]c(=O)c2ccc(-c3cc(-c4ccc(N5CCOCC5)c(CN(C)C)c4)c(F)nc3N)cc2c1F [I-515, 6-(2-amino-5-(3-((dimethylamino)methyl)-4-morpholinophenyl)-6-fluoropyridin-3-yl)-4-fluoro-3-methylisoquinolin-1(2H)-one]
27 | 0.1 to 10 nM | Nc1nc(F)c(-c2ccc([C@]34C[C@H]3CN(C3CCC3)C4)cc2)cc1-c1ccc2c(=O)[nH]cc(F)c2c1 [I-520, 6-(2-amino-5-(4-((1S,5R)-3-cyclobutyl-3-azabicyclo[3.1.0]hexan-1-yl)phenyl)-6-fluoropyridin-3-yl)-4-fluoroisoquinolin-1(2H)-one]
28 | 0.1 to 10 nM | Cc1[nH]c(=O)c2c(F)cc(-c3cc(-c4ccc(N5CCN(CC6CC6)CC5)cc4)c(F)nc3N)cc2c1F [I-529, 6-(2-amino-5-(4-(4-(cyclopropylmethyl)piperazin-1-yl)phenyl)-6-fluoropyridin-3-yl)-4,8-difluoro-3-methylisoquinolin-1(2H)-one]

Reference: US20240343704A1, “HALO-SUBSTITUTED AMINO PYRIDINE COMPOUNDS AS INHIBITORS OF THE HAEMATOPOIETIC PROGENITOR KINASE 1 (HPK1)” (priority 2021, published 2024)
